Experimental findings from PubChem BioAssay (NCI) are described below.

Among the test systems are SW-620 colon; A498 renal; UACC-257 melanoma; OVCAR-8 ovarian; HCT-116 colon; U251 CNS; NCI/ADR-RES ovarian; HL-60(TB) leukemia; EKVX NSCLC; MALME-3M melanoma.
Holding throughout (assay): NCI tumour cell line growth inhibition, 48 h

Structures are written as SMILES.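 96-well plates; 48 h exposure; 5 concentrations. Endpoints by linear interpolation between flanking doses. Not reached: highest tested concentration assigned. At the GI50, growth is halved. At the TGI there is no net growth.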

In the case of `O=C(c1ccccc1)c1ccc(Cl)c([N+](=O)[O-])c1`, the GI50 in the experiment with SW-620 colon is 5.27 µM; with A498 renal, 16 µM; in the experiment with UACC-257 melanoma it was 6.26 µM; in the experiment on OVCAR-8 ovarian it was 4.7 µM; in the experiment with HCT-116 colon, 4.78 µM; in the experiment on U251 CNS, 7.35 µM. Also, the GI50 with NCI/ADR-RES ovarian is 21.3 µM; in the experiment with HL-60(TB) leukemia, 2.56 µM. The TGI is 21.9 µM in the experiment on SW-620 colon; 30.9 µM in the experiment on A498 renal; 21.6 µM in the experiment with UACC-257 melanoma; 17.7 µM in the experiment with OVCAR-8 ovarian; 18.1 µM with HCT-116 colon; 20.3 µM in the experiment with U251 CNS. The TGI is 58.3 µM in the experiment with NCI/ADR-RES ovarian and 6.58 µM in the experiment with HL-60(TB) leukemia.

In the case of `O=C(/C=C/c1ccccn1)c1ccccc1O`, the GI50 is 1.92 µM in the experiment on SW-620 colon; 2.21 µM in the experiment on A498 renal; 2.22 µM in the experiment with UACC-257 melanoma; 5.22 µM in the experiment with EKVX NSCLC; 3.34 µM with OVCAR-8 ovarian; 1.85 µM with HCT-116 colon. Also, the GI50 in the experiment on U251 CNS was 2.02 µM; with NCI/ADR-RES ovarian it was 2.87 µM; in the experiment with HL-60(TB) leukemia, 2.15 µM. The TGI in the experiment with SW-620 colon came out at 4.02 µM; with A498 renal it was 7.14 µM; in the experiment on UACC-257 melanoma, 5.71 µM; with EKVX NSCLC, 21.8 µM; in the experiment with OVCAR-8 ovarian, 12.2 µM; in the experiment with HCT-116 colon, 3.75 µM. In addition, the TGI in the experiment with U251 CNS amounted to 5.78 µM; in the experiment with NCI/ADR-RES ovarian, 9.07 µM; in the experiment on HL-60(TB) leukemia, 6.15 µM.

`O=S(=O)(O)c1ccc(Cl)cc1.[Cd]`: the GI50 was 52.3 µM in the experiment with SW-620 colon; above 100 µM in the experiment on A498 renal; 29.6 µM with UACC-257 melanoma; 80.6 µM in the experiment with EKVX NSCLC; above 100 µM in the experiment on OVCAR-8 ovarian; above 100 µM in the experiment with HCT-116 colon. The GI50 in the experiment on U251 CNS was 34 µM; in the experiment with NCI/ADR-RES ovarian, above 100 µM; with HL-60(TB) leukemia, 51.7 µM. Further, the TGI in the experiment on SW-620 colon is above 100 µM; with A498 renal it was above 100 µM; in the experiment on UACC-257 melanoma it was 78.8 µM; in the experiment on EKVX NSCLC, above 100 µM; with OVCAR-8 ovarian it was above 100 µM; in the experiment with HCT-116 colon, above 100 µM. The TGI with U251 CNS, in the experiment with NCI/ADR-RES ovarian and in the experiment with HL-60(TB) leukemia was above 100 µM in each case.

As to `COc1ccc(-c2cc(-c3ccc(O)cc3)nc3nc(=S)[nH]c(N)c23)cc1`, the GI50 is 16 µM in the experiment with SW-620 colon; 17.6 µM in the experiment on MALME-3M melanoma; 20.5 µM with A498 renal; 17.2 µM with UACC-257 melanoma; 13.5 µM in the experiment on EKVX NSCLC; 16.1 µM in the experiment on OVCAR-8 ovarian. Besides, the GI50 is 15.4 µM in the experiment with HCT-116 colon, 15.3 µM with U251 CNS and 26.1 µM in the experiment on NCI/ADR-RES ovarian. The TGI in the experiment on SW-620 colon came out at 33.3 µM; with MALME-3M melanoma, 38.7 µM; in the experiment with A498 renal, 43.4 µM; in the experiment on UACC-257 melanoma, 36.3 µM; with EKVX NSCLC, 60.7 µM; with OVCAR-8 ovarian, 43.1 µM. The TGI in the experiment on HCT-116 colon came out at 31.3 µM; in the experiment on U251 CNS, 61.1 µM; in the experiment on NCI/ADR-RES ovarian it was 66.3 µM.

As for `O=C1CSC(=S)N1c1ccc(F)cc1F`, the TGI in the experiment with SW-620 colon, in the experiment with MALME-3M melanoma, in the experiment on A498 renal, in the experiment with UACC-257 melanoma, in the experiment with EKVX NSCLC and in the experiment with OVCAR-8 ovarian was above 100 µM in each case. The TGI in the experiment with HCT-116 colon, with U251 CNS and in the experiment with NCI/ADR-RES ovarian was above 100 µM throughout.

In the case of `COc1ccc(S(=O)(=O)N2CCN(C(=O)OCc3ccccc3)CC2C(=O)NO)cc1` (stereo not drawn), the GI50 was above 25 µM with SW-620 colon; above 25 µM in the experiment with MALME-3M melanoma; 24.6 µM with A498 renal; above 25 µM with UACC-257 melanoma; 6.18 µM in the experiment with EKVX NSCLC; above 25 µM in the experiment with OVCAR-8 ovarian. The GI50 in the experiment on HCT-116 colon, in the experiment on U251 CNS and in the experiment on NCI/ADR-RES ovarian was above 25 µM in each case. Besides, the TGI in the experiment on SW-620 colon, in the experiment on MALME-3M melanoma, in the experiment on A498 renal, with UACC-257 melanoma, in the experiment with EKVX NSCLC and with OVCAR-8 ovarian was above 25 µM each time. Moreover, the TGI with HCT-116 colon, in the experiment with U251 CNS and in the experiment on NCI/ADR-RES ovarian was above 25 µM in each case.

For the compound `CN(C)CCCNC(=O)c1cc(NC(=O)CCNC(=O)c2ccc3c(c2)C(=O)c2ccccc2C3=O)cn1C`, the GI50 was above 100 µM with SW-620 colon; above 100 µM in the experiment on A498 renal; 21.8 µM with UACC-257 melanoma; above 100 µM with EKVX NSCLC; above 100 µM in the experiment with OVCAR-8 ovarian; above 100 µM with HCT-116 colon. Moreover, the GI50 in the experiment with U251 CNS was 27.1 µM; with NCI/ADR-RES ovarian, above 100 µM; in the experiment on HL-60(TB) leukemia it was above 100 µM. Also, the TGI with SW-620 colon is above 100 µM; in the experiment with A498 renal it was above 100 µM; with UACC-257 melanoma, 95.5 µM; with EKVX NSCLC it was above 100 µM; with OVCAR-8 ovarian, above 100 µM; in the experiment on HCT-116 colon it was above 100 µM. Also, the TGI with U251 CNS, in the experiment with NCI/ADR-RES ovarian and in the experiment on HL-60(TB) leukemia was above 100 µM throughout.

For the compound `CC(C)(C)C(=O)OCOP(=O)(OCOC(=O)C(C)(C)C)C1CCCN(OC(=O)c2ccccc2)C1=O` (stereo not drawn), the GI50 in the experiment on SW-620 colon was 1.42 µM; with MALME-3M melanoma, 0.457 µM; in the experiment with A498 renal, 0.283 µM; with UACC-257 melanoma it was 3.43 µM; in the experiment with EKVX NSCLC, 0.999 µM; in the experiment with OVCAR-8 ovarian it was 0.543 µM. Also, the values for the GI50 in the experiment with HCT-116 colon, with U251 CNS and with NCI/ADR-RES ovarian were 0.558 µM, 0.919 µM and 0.721 µM, respectively. Also, the TGI stood at 24.4 µM in the experiment with SW-620 colon; 5.44 µM with MALME-3M melanoma; 0.832 µM in the experiment with A498 renal; 22.4 µM in the experiment with UACC-257 melanoma; 50.7 µM in the experiment with EKVX NSCLC; 6.95 µM in the experiment with OVCAR-8 ovarian. The TGI came to 6.46 µM with HCT-116 colon, 10.5 µM in the experiment with U251 CNS and 7.76 µM with NCI/ADR-RES ovarian.

For the compound `CC1(C)Cc2cccc(OCC(O)CN3CCN(c4ccc(F)cc4)CC3)c2O1` (stereo not drawn), the GI50 in the experiment with SW-620 colon was 14.3 µM; in the experiment with A498 renal, 14 µM; in the experiment with UACC-257 melanoma, 6.34 µM; with EKVX NSCLC it was 25 µM; with OVCAR-8 ovarian, 18.2 µM; with HCT-116 colon it was 7.34 µM. The GI50 in the experiment on U251 CNS was 12.8 µM; in the experiment on NCI/ADR-RES ovarian, 12.2 µM; with HL-60(TB) leukemia it was 16.4 µM. Further, the TGI in the experiment with SW-620 colon is above 50 µM; with A498 renal, 35.1 µM; in the experiment on UACC-257 melanoma, 16.9 µM; in the experiment with EKVX NSCLC, above 50 µM; in the experiment with OVCAR-8 ovarian, above 50 µM; in the experiment on HCT-116 colon, 15 µM. For the same compound, the TGI in the experiment with U251 CNS is 39.8 µM; with NCI/ADR-RES ovarian, 45.6 µM; with HL-60(TB) leukemia, above 50 µM.

Regarding `CCCCCCCCCCCCOC1C(CNC(=O)C2OC3OC(C)(C)OC3C2NC(=O)CN2CCN(c3ccccn3)CC2)OC2OC(C)(C)OC21` (stereo not drawn), the GI50 is 1.69 µM in the experiment with SW-620 colon; 1.88 µM with MALME-3M melanoma; 1.6 µM in the experiment on A498 renal; 1.81 µM with UACC-257 melanoma; 1.7 µM in the experiment with EKVX NSCLC; 1.62 µM in the experiment on OVCAR-8 ovarian. The GI50 in the experiment with HCT-116 colon is 1.61 µM; in the experiment on U251 CNS it was 1.86 µM; in the experiment with NCI/ADR-RES ovarian, 2.64 µM. Also, the TGI in the experiment with SW-620 colon was 3.18 µM; in the experiment with MALME-3M melanoma, 3.86 µM; in the experiment with A498 renal, 2.97 µM; in the experiment with UACC-257 melanoma, 3.49 µM; with EKVX NSCLC it was 3.14 µM; with OVCAR-8 ovarian, 3.15 µM. In addition, the results for the TGI with HCT-116 colon, in the experiment with U251 CNS and with NCI/ADR-RES ovarian were 3.04 µM, 3.46 µM and 7.39 µM, respectively.

`O=C(O)CN(CC(=O)O)Cc1cc2c(cc1O)Oc1cc(O)c(CN(CC(=O)O)CC(=O)O)cc1C21OC(=O)c2ccccc21`: the TGI with SW-620 colon, in the experiment with A498 renal, in the experiment with UACC-257 melanoma, with EKVX NSCLC, in the experiment with OVCAR-8 ovarian and in the experiment on HCT-116 colon was above 100 µM in each case. Moreover, the TGI in the experiment on U251 CNS, in the experiment on NCI/ADR-RES ovarian and in the experiment with HL-60(TB) leukemia was above 100 µM in each case.

As to `O=C(Nc1ccc(Cl)c(Cl)c1)C(=O)C(C1OC(=O)c2ccccc21)[N+](=O)[O-]` (stereo not drawn), the TGI in the experiment with SW-620 colon, in the experiment on MALME-3M melanoma, in the experiment with A498 renal, in the experiment on UACC-257 melanoma, in the experiment with EKVX NSCLC and with OVCAR-8 ovarian was above 100 µM in each case. Moreover, the TGI in the experiment on HCT-116 colon, in the experiment with U251 CNS and with NCI/ADR-RES ovarian was above 100 µM each time.

As for `O=C(CCCCC(=O)N/N=C\c1ccccc1Cl)N/N=C\c1ccccc1Cl`, the GI50 in the experiment on MALME-3M melanoma is 9.26 µM; with A498 renal, 3.13 µM; in the experiment with UACC-257 melanoma it was 2.54 µM; with EKVX NSCLC it was 1.73 µM; in the experiment with OVCAR-8 ovarian, 0.515 µM; in the experiment on HCT-116 colon, 0.654 µM. The figures for the GI50 in the experiment with U251 CNS and in the experiment on NCI/ADR-RES ovarian were 0.757 µM and 1.2 µM, respectively. The TGI in the experiment on MALME-3M melanoma is above 100 µM; in the experiment on A498 renal, 38.1 µM; in the experiment with UACC-257 melanoma, above 100 µM; in the experiment on EKVX NSCLC, above 100 µM; in the experiment on OVCAR-8 ovarian, 30.6 µM; in the experiment on HCT-116 colon it was above 100 µM. Moreover, the TGI in the experiment with U251 CNS was 21 µM; in the experiment with NCI/ADR-RES ovarian, above 100 µM.
